Results from patent US5707966A, “Antithrombotic agents” (Eli Lilly and Company, priority 1995, dated 1998).
Counter-ions that a name gives are not always drawn. Like-named read-outs stand apart in the source and are kept apart here.

Columns and labels:
Format in all cases: biochemical
[1] = target: Human Thrombin (Homo sapiens, UniProt P00734); assay: Inhibition of amidase activity of thrombin (Kass)
[2] = target: T1, factor Xa (Homo sapiens, UniProt P00742); assay: Kass with factor Xa, chromogenic substrate
T1 construct: Human factors X, Xa, IXa, XIa, and XIIa are purchased; purchased Enzyme Research Laboratories, South Bend, Ind
T1 sequence (P00742 235-488 limits assumed): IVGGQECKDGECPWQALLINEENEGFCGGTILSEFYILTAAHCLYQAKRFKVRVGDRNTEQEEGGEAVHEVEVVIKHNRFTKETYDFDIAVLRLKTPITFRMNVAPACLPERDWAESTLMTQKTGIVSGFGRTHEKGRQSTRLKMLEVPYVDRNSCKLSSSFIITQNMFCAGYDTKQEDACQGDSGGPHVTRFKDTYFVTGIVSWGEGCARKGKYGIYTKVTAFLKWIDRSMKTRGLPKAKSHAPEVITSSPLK
T1 sequence (P00742 41-179 partner limits assumed): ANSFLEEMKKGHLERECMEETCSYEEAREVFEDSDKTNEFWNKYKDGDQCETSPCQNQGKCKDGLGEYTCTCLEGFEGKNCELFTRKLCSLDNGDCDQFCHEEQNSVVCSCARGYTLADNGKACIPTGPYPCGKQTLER

[3] = target: T2, Bovine trypsin (Bos taurus, UniProt P00760); assay: Kass with trypsin, chromogenic substrate
T2 construct: Bovine trypsin is purchased; purchased Worthington Biochemicals, Freehold, N.J
T2 sequence (P00760 24-246): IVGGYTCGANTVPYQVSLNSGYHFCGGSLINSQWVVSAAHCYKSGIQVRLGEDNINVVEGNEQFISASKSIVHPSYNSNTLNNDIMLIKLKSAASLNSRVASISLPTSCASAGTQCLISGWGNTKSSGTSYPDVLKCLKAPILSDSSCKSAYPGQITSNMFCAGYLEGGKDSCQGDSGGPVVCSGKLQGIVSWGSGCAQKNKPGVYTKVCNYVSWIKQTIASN

[4] = target: T3, Human plasmin (Homo sapiens, UniProt P00747); assay: Kass with plasmin, chromogenic substrate
T3 construct: Human plasmin is purchased; purchased Boehringer Mannheim, Indianapolis, Ind
T3 sequence (P00747 97-810): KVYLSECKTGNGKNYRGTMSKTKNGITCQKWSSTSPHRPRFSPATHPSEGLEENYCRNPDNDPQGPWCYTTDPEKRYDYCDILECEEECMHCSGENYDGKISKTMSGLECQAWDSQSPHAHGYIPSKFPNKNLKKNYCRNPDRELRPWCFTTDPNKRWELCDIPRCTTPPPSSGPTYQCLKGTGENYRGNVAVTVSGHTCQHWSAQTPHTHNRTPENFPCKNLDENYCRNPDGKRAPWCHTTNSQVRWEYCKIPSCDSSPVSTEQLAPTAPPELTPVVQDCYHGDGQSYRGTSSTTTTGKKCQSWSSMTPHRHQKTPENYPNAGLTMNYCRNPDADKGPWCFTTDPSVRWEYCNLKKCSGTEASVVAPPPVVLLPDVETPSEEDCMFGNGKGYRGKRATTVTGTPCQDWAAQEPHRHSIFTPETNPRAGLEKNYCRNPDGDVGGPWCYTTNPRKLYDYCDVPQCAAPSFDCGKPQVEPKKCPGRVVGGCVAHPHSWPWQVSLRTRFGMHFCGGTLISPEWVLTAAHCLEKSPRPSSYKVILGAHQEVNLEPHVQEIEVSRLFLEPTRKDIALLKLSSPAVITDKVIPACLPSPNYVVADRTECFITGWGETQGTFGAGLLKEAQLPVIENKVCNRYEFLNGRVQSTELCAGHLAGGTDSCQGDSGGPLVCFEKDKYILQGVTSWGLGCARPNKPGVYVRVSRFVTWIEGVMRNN
T3 sequence (P00747 97-580 partner limits assumed): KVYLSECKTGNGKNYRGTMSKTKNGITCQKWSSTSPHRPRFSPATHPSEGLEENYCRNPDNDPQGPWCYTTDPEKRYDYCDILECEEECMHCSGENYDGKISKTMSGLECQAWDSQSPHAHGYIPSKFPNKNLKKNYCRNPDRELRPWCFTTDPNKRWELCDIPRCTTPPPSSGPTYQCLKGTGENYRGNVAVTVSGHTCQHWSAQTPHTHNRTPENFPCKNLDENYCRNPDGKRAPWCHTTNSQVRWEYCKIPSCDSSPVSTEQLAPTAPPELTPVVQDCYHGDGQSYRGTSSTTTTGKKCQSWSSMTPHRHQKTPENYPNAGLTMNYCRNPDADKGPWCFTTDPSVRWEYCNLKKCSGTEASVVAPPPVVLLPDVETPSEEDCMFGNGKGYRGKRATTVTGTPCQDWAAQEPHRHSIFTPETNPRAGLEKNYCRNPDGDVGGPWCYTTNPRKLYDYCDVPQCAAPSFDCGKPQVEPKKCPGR

[5] = target: T4, t-PA (Homo sapiens, UniProt P00750); assay: Kass with t-PA, chromogenic substrate; conditions: substrate H-D-Ile-Pro-Arg-p-nitroanilide
T4 construct: purchased American Diagnostica, Greenwich, Conn
T4 sequence (P00750 36-562): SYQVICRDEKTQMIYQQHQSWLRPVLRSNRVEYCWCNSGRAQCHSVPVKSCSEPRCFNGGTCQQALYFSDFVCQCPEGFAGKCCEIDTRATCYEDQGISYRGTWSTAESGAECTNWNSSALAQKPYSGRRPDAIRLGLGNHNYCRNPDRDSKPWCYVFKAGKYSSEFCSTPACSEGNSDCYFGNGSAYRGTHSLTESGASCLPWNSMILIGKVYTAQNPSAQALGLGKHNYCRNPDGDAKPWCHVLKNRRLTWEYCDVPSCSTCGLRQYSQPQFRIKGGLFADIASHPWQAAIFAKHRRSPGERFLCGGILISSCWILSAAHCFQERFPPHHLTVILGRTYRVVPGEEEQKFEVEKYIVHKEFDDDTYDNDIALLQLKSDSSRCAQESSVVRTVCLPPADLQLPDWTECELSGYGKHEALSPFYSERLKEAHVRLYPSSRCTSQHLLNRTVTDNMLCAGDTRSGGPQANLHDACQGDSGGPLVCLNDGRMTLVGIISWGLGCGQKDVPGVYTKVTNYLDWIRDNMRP
Experimental: By substantially following the procedures described above for human thrombin, and using other human blood coagulation system serine proteases and proteases of the fibrinolytic system with the appropriate chromogenic substrates, identified below, selectivity of the compounds of the present invention with respect to the coagulation factor serine proteases and with respect to the fibrinolytic system serine proteases are evaluated as well as their substantial lack of interference with serine proteases of the fibrinolytic system. Thrombin inhibitors preferably should spare fibrinolysis induced by urokinase, tissue plasminogen activator (t-PA) and streptokinase. This would be important to the therapeutic use of such agents as an adjunct to streptokinase, t-PA or urokinase thrombolytic therapy and to the use of such agents as an endogenous fibrinolysis-sparing (with respect to t-PA and urokinase) antithrombotic agent. In addition to the lack of interference with the amidase activity of the fibrinolytic proteases, such fibrinolytic system sparing can be studied by the use of human plasma clots and their lysis by the respective fibrinolytic plasminogen activators.
Human plasmin is purchased from Boehringer Mannheim, Indianapolis, Ind.; nt-PA is purchased as single chain activity reference from American Diagnostica, Greenwich, Conn. modified-t-PA6 (mt-PA6) is prepared at Eli Lilly and Company by procedure known in the art (See, Burck, et al., J. Biol. Chem., 265, […] (1990). Plasmin chromogenic substrate H-D-Val-Leu-Lys-p-nitroanilide and tissue plasminogen activator (t-PA) substrate H-D-Ile-Pro-Arg-p-nitroanilide are purchased from Kabi Vitrum, Stockholm, Sweden.

[6] = tested on: Human plasma; assay: Human plasma anticoagulation, thrombin time (TT); conditions: concentration required to double the thrombin time, linear extrapolation
How it was run: (§1)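 Compound was spiked over a wide concentration range into citrated human plasma, and clotting times were read on a coagulation instrument. PT was started with saline plus Thromboplastin-C. APTT used 120 s preincubation with Actin, then 0.02M CaCl2. TT used saline plus bovine thrombin (10 NIH units/mL). Doubling concentrations were obtained by linear extrapolation.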

[7] = tested on: Human plasma; assay: Human plasma anticoagulation, activated partial thromboplastin time (APTT); conditions: concentration required to double the APTT, linear extrapolation
How it was run: as §1

[8] = tested on: Human plasma; assay: Human plasma anticoagulation, prothrombin time (PT); conditions: concentration required to double the PT, linear extrapolation
How it was run: as §1

[9] = mean over a range of concentrations, […]
[10] = substrate N-Benzoyl-Ile-Glu-Gly-Arg-p-nitroanilide
[11] = substrate N-Benzoyl-Phe-Val-Arg-p-nitroanilide
[12] = substrate H-D-Val-Leu-Lys-p-nitroanilide

Compound | Kass Human Thrombin [1, 9] | Kass Xa [2, 10] | Kass Trypsin [3, 11] | Kass Plasmin [4, 12] | Kass t-PA [5] | Human Plasma Anticoagulation 2× Clotting time TT [6] | Human Plasma Anticoagulation 2× Clotting time APTT [7] | Human Plasma Anticoagulation 2× Clotting time PT [8] | Kass Human Thrombin [1] | Kass Xa [2] | Kass Trypsin [3] | Kass Plasmin [4]
1-Piq-Pro-p-NHCH2 C6 H4 C(NH)NH2.2HCl [Example 18] | 180 × 10^6 (L/mole) | 0.21 × 10^6 (L/mole) | 14 × 10^6 (L/mole) | 0.085 × 10^6 (L/mole) | 0.0094 × 10^6 (L/mole) | 7 ng/mL | 79 ng/mL | 170 ng/mL |  |  |  | 
N=C(N)c1ccc(CNC(=O)[C@@H]2C[C@@H]3CCCC[C@@H]3N2C(=O)[C@H]2CCCCN2)cc1 (relative stereo) [Example 20, D-hPro-Ohi-p-NHCH2 C6 H4 C(NH)NH2.3HCl] |  | 0.10 × 10^6 (L/mole) | 19 × 10^6 (L/mole) | 0.10 × 10^6 (L/mole) | 0.0077 × 10^6 (L/mole) | 62 ng/mL | 550 ng/mL | 600 ng/mL | 10 |  |  | 
CCS(=O)(=O)N[C@@H](C(=O)N1[C@H](C(=O)NCc2ccc(C(=N)N)cc2)C[C@@H]2CCCC[C@@H]21)c1ccccc1 (relative stereo) [Example 44, EtSO2 -Phg-cis-Ohi-p-NHCH2 C6 H4 C(NH)NH2.HCl] |  |  |  |  | 0.04 × 10^6 (L/mole) | 4 ng/mL | 100 ng/mL | 170 ng/mL |  | 0.66 | 2,600 | 1.8
CCS(=O)(=O)N[C@H](Cc1ccccc1)C(=O)N1[C@H](C(=O)NCc2ccc(C(=N)N)cc2)C[C@@H]2CCCC[C@@H]21 (relative stereo) [Example 45, EtSO2 -Phe-cis-Ohi-p-NHCH2 C6 H4 C(NH)NH2.HCl] |  | 1.5 × 10^6 (L/mole) | 110 × 10^6 (L/mole) | 1.1 × 10^6 (L/mole) | 0.77 × 10^6 (L/mole) | 8 ng/mL | 200 ng/mL | 330 ng/mL | 610 |  |  | 
N=C(N)c1ccc(CNC(=O)[C@@H]2C[C@@H]3CCCC[C@@H]3N2C(=O)[C@@H](CC2CCCCC2)NCC(=O)O)cc1 (relative stereo) [Example 49, HOOCCH2 -D-Cha-cis-Ohi-p-NHCH2 C6 H4 C(NH)NH2.HCl] |  | 3.4 × 10^6 (L/mole) | 940 × 10^6 (L/mole) | 0.84 × 10^6 (L/mole) | 0.04 × 10^6 (L/mole) | 5 ng/mL | 130 ng/mL | 130 ng/mL | 400 |  |  | 
CC(C)CC[C@H]1C[C@@H](C(=O)NCc2ccc(C(=N)N)cc2)N(C(=O)[C@@H](CC2CCCCC2)NCC(=O)O)C1 (relative stereo) [Example 50] | 40 × 10^6 (L/mole) | 4.3 × 10^6 (L/mole) | 2,200 × 10^6 (L/mole) | 1.8 × 10^6 (L/mole) | 0.04 × 10^6 (L/mole) | 35 ng/mL | 460 ng/mL | 420 ng/mL |  |  |  | 
N=C(N)c1cccc(CNC(=O)[C@@H]2CCCN2C(=O)[C@H](N)Cc2ccccc2)c1 [Example 16, D-Phe-Pro-m-NHCH2 C6 H4 C(NH)NH2.0.75HCl] | 0.97 × 10^6 (L/mole) | 0.0051 × 10^6 (L/mole) | 0.02 × 10^6 (L/mole) | 0.0017 × 10^6 (L/mole) | 0.0012 × 10^6 (L/mole) | 650 ng/mL | 8,600 ng/mL | 8,500 ng/mL |  |  |  | 
N=C(N)c1ccc(CNC(=O)[C@@H]2CCCN2C(=O)[C@H]2C[C@H]3CCCC[C@H]3CN2)cc1 [Example 19, D-3-Piq-Pro-p-NHCH2 C6 H4 C(NH)NH2.3HCl] |  | 0.14 × 10^6 (L/mole) | 41 × 10^6 (L/mole) | 0.16 × 10^6 (L/mole) | 0.0056 × 10^6 (L/mole) | 58 ng/mL | 300 ng/mL | 540 ng/mL |  |  |  | 
CCS(=O)(=O)N[C@H](Cc1ccccc1)C(=O)N1CCC[C@H]1C(=O)NCc1cccc(C(=N)N)c1 [Example 24, EtSO2 -D-Phe-Pro-m-NHCH2 --C6 H4 C(=NH)NH2.HCl] | 0.78 × 10^6 (L/mole) | < 0.001 × 10^6 (L/mole) | 0.03 × 10^6 (L/mole) | < 0.001 × 10^6 (L/mole) | < 0.001 × 10^6 (L/mole) | 1,000 ng/mL | 25,900 ng/mL | 25,000 ng/mL |  |  |  | 
CCS(=O)(=O)N[C@H](Cc1ccccc1)C(=O)N1CCC[C@H]1C(=O)NCCc1cccc(C(=N)N)c1 [Example 27, EtSO2 -D-Phe-Pro-m-NHCH2 CH2 --C6 H4 C(=NH)NH2.HCl] | 0.29 × 10^6 (L/mole) | 0.02 × 10^6 (L/mole) | 0.02 × 10^6 (L/mole) | < 0.001 × 10^6 (L/mole) | 0.02 × 10^6 (L/mole) | 1,940 ng/mL | 27,800 ng/mL | 27,000 ng/mL |  |  |  | 
N=C(N)c1ccc(CCNC(=O)[C@@H]2CCCN2C(=O)[C@@H]2NCC[C@@H]3CCCC[C@@H]32)cc1 [Example 28, 1-Piq-Pro-p-NHCH2 CH2 --C6 H4 C(=NH)NH2.2HCl] | 0.95 × 10^6 (L/mole) | 0.01 × 10^6 (L/mole) | 0.11 × 10^6 (L/mole) | < 0.001 × 10^6 (L/mole) | < 0.001 × 10^6 (L/mole) | 520 ng/mL | 8,100 ng/mL | 8,300 ng/mL |  |  |  | 
